In patent publication US20240415801A1, “Methods and Compositions for Treating Fibroids” (Lundquist Institute for Biomedical Innovation at …, priority 2023, published 2024):

Columns and labels:
[1] = test system: fibroid xenografts; experiment: Immunohistochemistry and Masson's trichrome staining of xenografts (Example 1); type: in vivo, SCID/Beige mice
Description: Tissues were fixed in 4% paraformaldehyde and subsequently embedded in paraffin, and 5-micron sections were cut and mounted onto glass slides. Staining procedures, including Masson's trichrome stain (HT15-1 KT, Sigma-Aldrich), and immunohistochemistry, were conducted as previously described. Primary antibodies utilized in this study included rabbit anti-Ki67 (dilution 1:250, 27309-1-AP, Proteintech Group, Inc, Rosemont, IL, USA), rabbit anti-cleaved caspase-3 (dilution 1:50, #9664, Cell Signaling Technology, Danvers, MA, USA), rabbit anti-CCND1 (dilution 1:50, #55506, Cell Signaling Technology), and mouse anti-E2F1 (dilution 1:50, sc-251, Santa Cruz Biotechnology, Inc., Dallas, TX, USA).

[2] = test system: fibroid xenografts; experiment: Total collagen enzyme-linked immunosorbent assay of xenografts (Example 1); type: in vivo, SCID/Beige mice; conditions: 20 mg/kg daily, 8 weeks, vs controls
Description: The total collagen content in xenografts was assessed in duplicate using the QuickZyme Total Collagen Assay Kit (QuickZyme Biosciences, Leiden, Netherlands), following the manufacturer's instructions as previously described. Absorbance readings were taken spectrophotometrically at a wavelength of 570 nm, and concentrations were determined by comparing sample optical density values to a standard curve. Total collagen levels were quantified as μg/ml of protein and reported as fold change relative to the vehicle group.

[3] = test system: fibroid xenografts; experiment: Xenograft mouse fibroid model, tumor weight (Example 2); type: in vivo, ovariectomized CB-17 SCID/Beige mice; conditions: 5 mg/kg i.p. (every other day / three times per week), two months, vs matched controls
Source text: Portions of uterine fibroids (intramural, 2-5 cm in diameters) (n=13) were obtained from patients at Harbor-UCLA Medical Center. Prior approval from the Institutional Review Board (18CR-31752-01 R) at the Lundquist Institute was obtained. Informed consent was obtained from all the patients participating in the study who were not taking any hormonal medications for at least 3 months prior to surgery. The fibroids used in this study were from African Americans (n=3), Hispanics (n=9) and Asians (n=1) women aged 35-57 years (mean 46±6.5 years). The MED12 mutation status of all fibroids was determined by PCR amplification and Sanger sequencing (Laragen Inc. Culver City, CA). […] The missense mutations in exon 2 included c.130G>A (p.Gly44Ser) (n=4), c.131 G>A (p.Gly44Asp) (n=2) and c.131 G>T (p.Gly44Val) (n=1). The tissues were snap frozen and stored in liquid nitrogen for further analysis as previously described (2, 3).
Portions of liver, kidney, heart were dissected and frozen.

[4] = Tolerability and body weight of xenograft mice (Example 2); conditions: 5 mg/kg/three times per week
Description: 9-12-weeks-old female ovariectomized SCID/Beige mice (Charles River Laboratories) were implanted with pellets (Innovative Research of America) containing estradiol (0.05 mg/90 d release) and progesterone (25 mg/60 d release) as previously reported (4, 5). […] After two months of treatment animals were sacrificed, and blood was obtained by cardiac puncture.
Briefly, freshly obtained fibroids from hysterectomies was cut aseptically into small pieces (4-5-mm3 cubes) using a razor blade and weighed. Equal weights of the explants from the same patient were implanted in the flank of SCID mice. […] After two months of treatment animals were sacrificed, and blood was obtained by cardiac puncture.

[5] = test system: primary fibroid smooth muscle cells; conditions: refs [10, 93]; cited from earlier work
[6] = test system: fibroid xenografts; experiment: RNA sequencing of fibroid xenografts (Example 1); type: in vivo, SCID/Beige mice; conditions: for number of downregulated transcripts (RNAseq) / number of upregulated transcripts (RNAseq): cutoff 1.5 fold, xenografts after two months, n=4 vs 4 vehicle
[7] = test system: human fibroid explants; experiment: Fibroid explant culture, qRT-PCR; type: cell-based; conditions: 5 μM, 48 hours
Description: Quantitative RT-PCR was performed as previously described. Selected gene expression levels were assessed utilizing the Invitrogen StepOne System, with normalization against 18S. Triplicate reactions were conducted, and relative mRNA expression was calculated using the comparative cycle threshold method (2−ΔΔCt), with results presented as fold change relative to the control group. The primer sequences used are shown in the following Sequence Table:
Equal weights of fibroid explants, aseptically cut from the same patient, were plated in 6-well plates containing complete medium. They were then incubated for 48 hours with either vehicle or Bay (5 μM).

[8] = Safety test, plasma chemistry panel (Example 2); type: in vivo, SCID/Beige mice; conditions: 5 mg/kg i.p.
Description: In order to determine if Bay 11-7082 administration was safe, the plasma collected from the mice was tested after 8 weeks of treatment with vehicle or Bay 11-7082. The plasma (100 μL) was pipetted into the Comprehensive Diagnostic Profile Rotor (#500-1038, Abaxis, Union City, CA, USA) and the values of glucose, creatinine, BUN, phosphorus, sodium, albumin, alkaline phosphatase, serum glutamic pyruvic transaminase (SGPT; ALT), total protein, globulin, total bilirubin and amylase were analyzed using VetScan VS2 chemistry analyzer (Abaxis, Union City, CA, USA).

[9] = xenografts, 20 mg/kg daily, two months

## Cc1ccc(S(=O)(=O)/C=C/C#N)cc1 [Bay 11-7082]
[1]; 20 mg/kg daily, 8 weeks
  expression of cell cycle markers CCND1 and E2F1 (IHC): decreased expression
  expression of collagens (Masson's trichrome staining): significant decrease
  expression of proliferation marker Ki67 (IHC): significant reduction
  smooth muscle content (Masson's trichrome staining): no significant differences
[1]; drug versus vehicle
  Cleaved caspase 3 staining (IHC): no significant difference
[2]
  total collagen protein levels: significant decrease
[3]
  reduction in tumor weight: 40%
[4]
  effect on body weight: no significant effects
[4]; vehicle 26.16g±0.49
  body weight: 25.42 g
[5]
  expression of miR-29c and miR-200c: induced
[6]
  number of downregulated transcripts (RNAseq): 629
  number of upregulated transcripts (RNAseq): 374
[6]; listed as Bay
  number of downregulated transcripts (RNAseq): 374
  number of upregulated transcripts (RNAseq): 629
[6]; [9]
  RNAseq: expression of TDO2 and serotonin receptor HTR1B: significantly inhibited
  RNAseq: expression of growth factors (IGF1, EGF, PDGF, FGF8, PRL, TGFB3) and ECM components (COL3A1, KRT10): decrease
  RNAseq: genes of cell proliferation, mitosis, mitotic apparatus, cytokinesis (Ki67, E2F1, CCND1, CCNB1, CCNA2, BUB1, CKS2 and others): downregulated
  RNAseq: pro-inflammatory cytokines (IL1a, IL1b, TNF, IL6, IL15, IL7R, TNFRSF11A), TLR3, TLR6, chemokines (CXCCR4, CCR5, CCL3, CCL5): downregulation
[6]; xenografts, two months, significant variation among animals
  RNAseq: vWF, ICAM1, ITGAX, SOX2, CXCL8, IL10, IL13: up-regulated
[7]
  mRNA levels of TLR3, TLR6, MyD88, TNFα, ESR1, HTR1B, TNFRSF11A: without significant effects
  mRNA levels of VEGFC, TDO2, TGFB3, LOX, E2F1, PRL, PGR, CKS2, SPARC, COL3A1, FN1, CCND1, IL8, IL6, IL1β: significant inhibition
[7]; fibroid explants
  expression of miR-29c and miR-200c: significant increase
[8]; 8 weeks
  adverse effects in blood plasma chemistry panel (glucose, kidney function, electrolytes, liver function, pancreatic amylase): no adverse effects
[8]; plasma after 8 weeks
  Albumin (mean ± SEM): 3.5 ± 0.14 g/dL
  Alkaline phosphatase (mean ± SEM): 91.9 ± 20.05 U/l
  Amylase (mean ± SEM): 643.0 ± 36.82 U/l
  BUN (mean ± SEM): 27.1 ± 5.75 mg/dL
  Creatinine (mean ± SEM): 0.4 ± 0.03 mg/dL
  Globulin (mean ± SEM): 1.1 ± 0.24 g/dL
  Glucose (mean ± SEM): 261.0 ± 14.63 mg/dL
  Phosphorus (mean ± SEM): 10.1 ± 0.53 mg/dL
  SGPT (ALT) (mean ± SEM): 54.5 ± 8.71 U/l
  Sodium (mean ± SEM): 155.3 ± 1.35 mEq/l
  Total bilirubin (mean ± SEM): 0.3 ± 0.04 mg/dL
  Total protein (mean ± SEM): 4.6 ± 0.16 g/dL
